Four compounds from patent US11642314B2, “Mixtures of branched chain keto acids (BCKA) and method for the production of such mixtures” (Evonik Operations GmbH, priority 2018, dated 2023) can be followed below.

A word on the solubility: it is the concentration that dissolves in the medium under given conditions.

SMILES strings stand for the structures.

This series in a line: Water solubility at 20° C. It is filed as physicochemical. The conditions noted are these: in water at 20° C.; calcium salts according to b99.
Turning to `CC(C)CC(=O)C(=O)O` [Keto leucine], the solubility fell in the range of 11.9 to 12.5 mg/mL.
With `CC(C)C(=O)C(=O)O` [Keto valine], the solubility is 65 to 70 mg/mL.
As for `CSCCC(O)C(=O)O` (stereo not drawn) [α-hydroxymethionine], the solubility fell in the range of 52 to 63 mg/mL.
On to `CCC(C)C(=O)C(=O)O` (stereo not shown) [Keto isoleucine], for which the solubility was 24.3 mg/mL.
